The record followed here is patent publication US20240000860A1, “METHODS FOR TREATING AUTISM SPECTRUM DISORDER” (priority 2020, published 2024).

Format in all cases: in vivo
For assay [1], the system named is gene pathways in mouse brain (prefrontal cortex). Description: RNA sequencing of prefrontal cortex after supplemented metabolites: differentially expressed gene pathways. Particulars: two weeks supplementation. How it is done:
Transcriptomics data (RNA sequencing) was collected from the prefrontal cortex of 12-week old mice after consuming a low, medium, or high dosage of supplemented metabolites for two weeks. RNA sequencing used brain tissue to evaluate possible correlation between changes in relative changes in gene transcription with changes in behavior. The number of differentially expressed gene pathways at significance level of 0.05, 0.1, and 0.15 was determined (Table 1).

The test system of assay [2] is mice. Description: Three-chamber sociability test. Particulars: behavioral assay summary, Yes/No. Here is the method: (§1) Mice were fed 80% of their total food as non-supplemented food (chow) for 4 days. For the next two weeks, mice were fed 80% of their total food as non-supplemented food and the remaining 20% was supplemented with selected metabolites(s). Mice were fed on food supplemented with various metabolites including 5-dodecacenoate (5D), glycodeoxycholate (GDC), ursodeoxycholate (UDC), or a control food lacking a supplement (CTL). Mouse behavior was tested using an elevated plus maze (FIG. 13), a three-chamber sociability test, and tracking wheel usage. During testing, mice were fed 80% of their total food as non-supplemented food and the remaining 20% was supplemented with the selected metabolites(s).
Additionally, the effect of supplementation with the metabolites on sociability was measured with a three-chamber sociability test (FIG. 21). This chamber tested for responses to social novelty.

The subject of assay [3] is mice. Description: Mouse wheel distance traveled. To be noted: for night-time activity: after administering metabolites. Here is the method:
as §1
Lastly, mice fed with food supplemented with various metabolites were given a mouse wheel and distance traveled was tracked.

The subject of assay [4] is mice. Description: Habituation over three days (distance traveled, time in center, ambulatory time). To be noted: for Habituation exploration / Habituation time in center: behavioral assay summary, Yes/No; for habituation: total distance traveled and exploratory activity: over three days. How it is done:
as §1
Habituation over was tested with the […] (FIG. 16). […] Significance was tested with an ANOVA test.
Habituation was measured by tracking the amount of time spent in the center of the chamber (FIG. 18).
Active time was also measured as total ambulatory time and center ambulatory time.

For assay [5], the system named is mice. Description: Elevated plus maze (anxiogenic behavior). To be noted: for EPM closed arms / EPM open arms: behavioral assay summary, Yes/No. How it is done: as §1
Anxiogenic behavior was tested by tracking time spent in closed arms of an elevated plus maze. Control mice were fed food lacking a supplement.

The mark [6] stands for this setting: significance level 0.05, 12-week old mice.
[7] abbreviates: significance level 0.1, 12-week old mice.
[8] abbreviates: significance level 0.15, 12-week old mice.
[9] abbreviates: treatment average vs 5D Average.
Where [10] appears, read: treatment average vs Control Average.

Marks after values point to notes of the source that are not given here.

Turning to `C[C@H](CCC(=O)NCC(=O)O)[C@H]1CC[C@H]2[C@@H]3CC[C@@H]4C[C@H](O)CC[C@]4(C)[C@H]3C[C@H](O)[C@]12C` [GDC, glycodeoxycholate], the “Differentially Expressed Gene Pathways in Mouse Brain” value in assay [1] (setting [6]) is 153; in assay [1] (setting [7]) it was 277; in assay [1] (setting [8]), 291. In addition, the Sociability result in the assay on mice [2] is “No”. Besides, the night-time activity entry in the assay on mice [3] is “night-time activity increased”. The “Adjusted p value, comparison of average distance traveled” value in the assay on mice [3] (setting [9]) is 0.2762; in the assay with mice [3] (setting [10]), 0.0000114*. The Habituation exploration result in the assay with mice [4] is reported as “Yes”. Besides, in the assay with mice [4], the “Habituation time in center” value is “No”. In addition, in the assay on mice [4], the “habituation: total distance traveled and exploratory activity” value is “lower total distance traveled and exploratory activity over three days”. Further, the EPM closed arms entry in the assay with mice [5] is reported as “No”. Also, the EPM open arms result in the assay with mice [5] is given as “No”. The “time spent in closed arms of elevated plus maze” value in the assay on mice [5] (vs control mice) is given as “did not spend significantly more time in closed arms than control mice”.
On to `N[C@@H](CCC(=O)O)C(=O)O` [Glutamate, glutamate], for which the “Differentially Expressed Gene Pathways in Mouse Brain” value in assay [1] (setting [6]) stood at 0; in assay [1] (setting [7]), 0; in assay [1] (setting [8]), 107.
`CC(=O)N[C@@H](CCC(=O)O)C(=O)O` [N-acetyl-L-glutamate]: the “Differentially Expressed Gene Pathways in Mouse Brain” value is given as 82 in assay [1] (setting [6]), 145 in assay [1] (setting [7]) and 177 in assay [1] (setting [8]).
On to `C[C@H](CCC(=O)O)[C@H]1CC[C@H]2[C@@H]3[C@@H](O)C[C@@H]4C[C@H](O)CC[C@]4(C)[C@H]3CC[C@]12C` [UDC, ursodeoxycholate], for which the results for the “Differentially Expressed Gene Pathways in Mouse Brain” value in assay [1] (setting [6]), in assay [1] (setting [7]) and in assay [1] (setting [8]) were 0, 0 and 104, respectively. In the assay with mice [2], the Sociability result was “No”. The night-time activity entry with mice [3] was “night-time activity increased”. Moreover, the “Adjusted p value, comparison of average distance traveled” value is listed as 0.00000000 with mice [3] (setting [9]), 0.00000000* in the assay on mice [3] (setting [10]) and 0.0000141 in the assay on mice [3] (treatment average vs GDC Average). Further, the Habituation exploration result in the assay on mice [4] is “No”. Also, the “Habituation time in center” value with mice [4] was “No”. Also, in the assay on mice [4], the “habituation: total distance traveled and exploratory activity” value is “did not decrease the total distance traveled on day three compared to day two”. Besides, the EPM closed arms entry in the assay with mice [5] is listed as “Yes”. Also, the EPM open arms entry in the assay with mice [5] is given as “No”. Besides, the “active time in the closed arms of the maze” value in the assay on mice [5] (vs control mice) was “lower active time in the closed arms of the maze than control mice”. For the same compound, in the assay on mice [5] (vs control mice), the “time spent in closed arms of elevated plus maze” value was “spent less time in the closed arms of the maze”.
